According to patent US5118601A, “Method of screening purine nucleoside compounds or analogs for the ability to enhance the cellular synthesis and release of adenosine” (The Regents of the University of California, priority 1989, dated 1992):
“And” between values parts separate entries of the source, which are not always exact repeats. Equal values may be shown once.

What was measured:
AMP deaminase = AMP deaminase inhibition (14C-AMP to 14C-IMP conversion, lymphoblast lysate); assay type: biochemical, human; settings: 200 μM of each ribotide
[1] = tested on: HPRT- neuroblastoma cells; experiment: Adenosine excretion by stimulated HPRT- neuroblastoma cells (calcium ionophore A23187); assay type: cell-based; settings: for correction of lowered adenosine secretion of cells deficient in hypoxanthine phosphoribosyl transferase: pretreatment
Procedure: (§1) To induce ATP catabolism, the growth medium was replaced by medium containing micromolar amounts of the calcium ionophore A23187 and 1.0 μM deoxycoformycin.

[2] = tested on: Mouse bone marrow-derived mast cells; experiment: Mast cell beta-hexosaminidase release (degranulation); assay type: cell-based
Procedure: (§2) By preventing mast cell degranulation, it is possible to prevent or control a patient's allergic response. Bone marrow obtained from Balb/C mice femurs was cultured in a 1:1 mixture of Razin media and conditioned media, produced by co-culturing splenocytes from C57B1/6J and C3H mice in the present of Concanavalin A as described by Razin et al. in the Proc. Natl. Acad. Sci. USA 28: 2559-2561, 1981. After weekly passaging and at least 15 days in tissue culture, the resulting cells were 90% pure mast cells and 95% viable as assessed by Trypan blue exclusion. Cells exposed to ribavirin in culture were washed three times prior to use in experiments. Parallel cultures of cells grown in media alone were used as controls for pharmacologically manipulated mast cells. Cell growth was assessed by counting cells at particular time pints and comparing actual numbers of ribavirin-treated cells to numbers of cells grown in media alone.
β-hexosaminidase was chosen as a representative granule-associated, preformed mast cell mediator because it is easily quantitated, and its release nearly identically parallels that of histamine. Mouse bone marrow-derived mast cells were centrifuged at 200×g for 5 minutes, washed three times in Tyrode's buffer lacking divalent cations, sensitized for 30 minutes at 37° C. with anti-DNP (dinitrophenyl phosphate) IgE (1 μg/10^6 cells), and challenged with either DNP-BSA antigen ([…]/3×10^5 cells) or A23187 (10 μg/ml/3×10^5 cells) in 400 μl of complete Tyrode's buffer for 10 minutes at 37° C. Reaction mixtures were centrifuged at 200×g for 10 minutes, and supernatant and pellet β-hexasaminidase concentrations were assayed by the hydrolysis of p-nitrophenyl-β-D-glucosamide as described in Schwartz et al. in J. Immunol. […] Spontaneous β-hexosaminidase release was determined in unchallenged cells. The net % of β-hexosaminidase released is defined as follows: [formula] where [β-hex] is βhexosaminidase and super, is supernatant. When exogenous adenosine was present in reaction mixtures, it was added simultaneously with the secretagogue.

[3] = tested on: human splenic lymphoblast cell line (WI-L2); experiment: Adenosine release by WI-L2 lymphoblasts during ATP breakdown (2-deoxyglucose); assay type: cell-based
Procedure: The history and properties of the cell line have been described by Hershfield et al. in Science, Vol. 197, p. 1284, 1977.
Catabolism of cellular ATP stores was stimulated by adding either 2-deoxyglucose or a calcium ionophore. At various times, the amount of adenosine released by the cells into the supernatant, or the amount of nucleotides remaining in the cells, was determined by mixing 3 μl of chilled 4.4N perchloric acid with 300 μl of supernatants, or by adding 300 μl of chilled 0.4N perchloric acid to the cell collected as pellets and centrifuging the mixtures at 500×G for 10 minutes at 4° C. […] 1245, 1975. Following centrifugation at 1500×G for three minutes at 4° C., the aqueous phase is removed and frozen at -20° C. until assayed for adenosine, inosine, or for nucleotides. Adenosine was evaluated isocratically on a C-18 microBondapak reverse phase column equilibrated with 4 millimolar potassium phosphate, (pH 3.4):acetonitrile 60% in water (95:5 v/v) buffer. Adenosine elutes at 8-10 minutes, and its identity was confirmed by its sensitivity to adenosine deaminase and by spiking with adenosine standards. The extracted samples from the cell pellet were analyzed for nucleotides by high pressure liquid chromatography on a Whatman Partisil-10 (SAX) column equilibrated with 10 millimolar potassium phosphate, pH 3.78, and eluted with a linear gradient to a 0.25 molar potassium phosphate, 0.5 molar KCl, pH 3.45. […] Peaks were quantitated by comparison with high pressure liquid chromatography analysis of suitable standards.
Cells were grown to about 0.5×10^6 cells/ml (mid-log phase) in FIG. 2 and to about 1.0×10^6 cells/ml (early stationary phase) in FIGS. 7-9.

ischemic myocardium [4] = experiment: Coronary venous adenosine during coronary artery occlusion in dogs; assay type: in vivo, dog
Procedure: FIG. 3. […] Coronary venous blood was collected into chilled 2N perchloric acid at various times before and after coronary artery occlusion. Supernatants from these extracts were neutralized with alamine and freon and evaluated by high performance liquid chromotography.
(§3) Thirteen mongrel dogs were anesthetized with phenobarbital. […] C.V. Dis. 20; 55 (1977). […] Two of the surviving saline-treated animals fibrillated. […] The range was 4.4 to 100 μM.

[5] = tested on: pentylene tetrazol-induced seizures; experiment: Pentylene tetrazol-induced seizures in the rat; assay type: in vivo; settings: 2000 mg/kg (total dose) intraperitoneal
[6] = tested on: HPRT+ neuroblastoma cells; experiment: Adenosine excretion by stimulated HPRT+ neuroblastoma cells (calcium ionophore A23187); assay type: cell-based
Procedure: as §1

ischemic myocardium [7] = experiment: Venous inosine levels during coronary artery occlusion in dogs; assay type: in vivo, dog; settings: over the 60-minute assay period
Procedure: as §3
That the increase in the levels of adenosine is due, at least in part, to a reduction in the amount of ATP that is converted to inosine was shown by analysis of venous blood from dogs in Example III for inosine levels.

[8] = tested on: patients with adenylosuccinase deficiency (autism); experiment: Therapeutic trial in patients with adenylosuccinase deficiency (autism); assay type: in vivo, human
Text: Following authorization, therapeutic trials with AICA riboside were started in two patients with adenylosuccinase deficiency (autism). […] On Day 55, both patients were briefly readmitted for clinical, biochemical and psychiatric evaluation. […] Treatment was maintained until Day 71, and arrested at that date.

[9] = tested on: ischemia-induced arrhythmias; experiment: Arrhythmias during myocardial ischemia in dogs (electrocardiogram); assay type: in vivo, dog; settings: individual treated dogs 1-6
Procedure: as §3
One consequence of myocardial ischemia is arrhythmia and the frequency of arrhythmias is related to the degree of reduced blood flow. […] Electrocardiograms recorded during ischemia of Example III were analyzed for the number of premature ventricular depolarizations (PVD) and ventricular tachycardia (VTAC) episodes.

ischemic myocardium [10] = tested on: ischemic myocardium
Procedure: Regional myocardial blood flow was measured using radiolabelled microspheres infused into the left atrium at 5 minutes (open) and 60 minutes (hatched) of occlusion. The means plus the standard deviations are graphed. The asterisks (*) identify differences from saline-treated dogs that are significant at p<0.01.
Thirteen mongrel dogs were anesthetized with phenobarbital. The anterior coronary vein was cannulated and a blood sample was collected into 2N perchloric acid. […] Regional myocardial blood flow was measured within 15 μm radiolabelled spheres infused into the left atrium at 5 and 60 minutes during the ischemic period, as described by Heymann et al. in Prog. […] The electrocardiogram and arterial pressure were monitored throughout the period of ischemia.

[11] = tested on: Mouse bone marrow-derived mast cells; experiment: Mast cell leukotriene C4 release (radioimmune assay); assay type: cell-based; settings: 100 μM for six days, challenged 20 minutes with A23187; control 51
Procedure: as §2

[12] = three-hour preincubation and four-hour incubation during 2-deoxyglucose treatment

How did the AMP deaminase inhibited (AMP deaminase) turn out when NC(=O)c1ncn([C@@H]2O[C@H](COP(=O)(O)O)[C@@H](O)[C@H]2O)c1N [AICA ribotide] was run?
Its AMP deaminase inhibited is 38%.

With NC(=O)c1ncn([C@@H]2O[C@H](CO)[C@@H](O)[C@H]2O)n1 [ribavirin, 1-β-D-ribofuranosyl-1H-1,2,4-triazole-3-carboxamide, reference compound] as the molecule, how does the “correction of lowered adenosine secretion of cells deficient in hypoxanthine phosphoribosyl transferase” value [1] read?
Its value is “can be corrected”.

What about the mediator release ([2]; 1 μM for six days) of the same molecule?
The mediator release was “inhibits mediator release significantly”.

And the “net β-hexosaminidase release versus controls” value ([2]; 1, 10, or 2 μm for six days, challenged with A23187)?
Its value is “released significantly less”.

What about the “β-hexosaminidase release compared to cells cultured in media alone” value ([2]; three to seven days in 10 μM, washed, challenged with A23187, p<0.05) of the same molecule?
The value was “marked attenuation”.

And the “adenosine release from lymphoblasts” value [3, 12]?
The value was “Increased in vitro adenosine release”.

What about the “adenosine release from lymphoblasts” value ([3]; three-hour preincubation and four-hour incubation during 2-deoxyglucose treatment, listed as ribivirin) of the same molecule?
Its value is “increased adenosine release”.

For NC(=O)c1ncn([C@@H]2O[C@H](COP(=O)(O)O)[C@@H](O)[C@H]2O)n1 [ribavirin monophosphate], which AMP deaminase inhibited (AMP deaminase) is on record?
Its AMP deaminase inhibited is 54%.

With NC(=O)c1ncn([C@@H]2O[C@H](CO)[C@@H](O)[C@H]2O)c1N [AICA riboside, 5-amino-4-imidazolecarboxamide riboside] as the molecule, how does the “Concentration of Adenosine” value ([1]; HPRT- cells, ionophore 0 μg/ml, AICA riboside 50 μM) read?
The value was less than 0.01 µM.

What about the “correction of lowered adenosine secretion of cells deficient in hypoxanthine phosphoribosyl transferase” value [1] of the same molecule?
Its value is “can be corrected”.

And the “peak coronary venous adenosine level” value (ischemic myocardium [4]; at 1 minute of ischemia, saline peak 0.22 ±0.08 at 10 minutes)?
Its value is 1.79 ± 0.35 µM.

And the “coronary venous adenosine level” value (ischemic myocardium [4]; at 60 minutes of ischemia, saline undetectable, in µM)?
Its value is 0.18±0.15.

What about the “adenosine washout on reperfusion” value (ischemic myocardium [4]; reperfusion) of the same molecule?
Its value is “significant rise”.

And the “adenosine in blood from the right atrium (systemic blood)” value (ischemic myocardium [4]; systemic sampling)?
The value was “no detectable adenosine”.

What about the β-hexosaminidase released ([2]; 100 micromolar, A23187 1 μg/ml, 28.8% in its absence) of the same molecule?
Its β-hexosaminidase released is 17.6%.

What about the latency to seizure [5] of the same molecule?
Its latency to seizure is “dramatic prolongation”.

What about the “adenosine secreted by treated cells versus control cells” value ([6]; 50 μM AICA riboside, A23187 and 1.0 μM deoxycoformycin) of the same molecule?
The value was “at least twofold more adenosine”.

And the “Concentration of Adenosine” value ([6]; HPRT+ cells, ionophore 0 μg/ml, AICA riboside 50 μM)?
Its value is less than 0.01 µM.

And the “adenosine release from lymphoblasts” value ([3]; 48-hour pretreatment, 100-500 micromolar)?
Its value is “enhances adenosine release”.

And the “adenosine release from lymphoblasts” value ([3]; 18 hours preincubation before 2-deoxyglucose exposure)?
The value was “enhanced adenosine release”.

What about the “adenosine release from lymphoblasts” value [3, 12] of the same molecule?
Its value is “increased adenosine release”.

What about the “inosine levels in venous blood” value (ischemic myocardium [7]) of the same molecule?
The value was “more than twofold decrease”.

What about the “AICA riboside in plasma and CSF” value ([8]; all dosages used) of the same molecule?
Its value is “could not be detected”.

And the “haematology and clinical chemistry parameters” value ([8]; before and during the trial treatment)?
Its value is “found normal”.

What about the “AICA riboside in plasma” value ([8]; one hour after intravenous administration, 20 mg/kg/day) of the same molecule?
Its value is “undetectable”.

And the “concentration of ATP and GTP in the erythrocytes” value ([8]; patients)?
The value was “did not influence significantly”.

What about the “urinary output of succinyladenosine, SAICA riboside and uric acid” value ([8]; patients) of the same molecule?
The value was “without significant effect”.

What about the “PVD, individual dogs” value [9] of the same molecule?
The value was 12 EPISODES/H and 10 EPISODES/H and 4 EPISODES/H and 13 EPISODES/H and 6 EPISODES/H.

What about the “VTAC, individual dogs” value [9] of the same molecule?
Its value is 1 EPISODES/H and 0 EPISODES/H and 27 EPISODES/H.

And the “systemic arterial pressure and heart rate versus saline” value (ischemic myocardium [10]; dog, in vivo)?
Its value is “no significant differences”.

What about the “flow to normal myocardium” value (ischemic myocardium [10]; non-ischemic tissue) of the same molecule?
Its value is “did not alter flow”.

What about the “supernatant leukotriene C4 concentration” value [11] of the same molecule?
Its value is 13 nanograms/106 cells.
